{"source": "patent US20040131692A1", "about": "“Nanoparticles made of protein with coupled apolipoprotein e for penetration of the blood-brain barrier and methods for the production thereof” (priority 2001, published 2004)", "system": "mice", "experiment": "tail-flick test, analgesic effect (nociceptive response) after intravenous injection", "assay_type": "in vivo", "details": "i.v. dalargin 7.5 mg/kg, comparison data originate from an earlier experiment", "protocol": "The preparation was applied to mice […] at a dosage of 7.5 mg/kg of dalargin. This corresponds to an application amount of 200 μl of the aforementioned preparation per mouse, based on an average body weight of a mouse of 20 g.\nThe analgesic effect (nociceptive response) was determined by the tail-flick test, in which a hot beam of light is projected onto the tail of the mouse and the time until the mouse draws away its tail is measured. After 10 seconds (=100% MPE) the experiment was truncated so as not to cause injury to the mouse. The maximally possible analgesic effect (MPE) was determined in accordance with the following formula: [formula]\nNegative MPE values result if after administration of the administration the mouse draws away its tail before the treatment.\nWith the aid of dalargin-loaded avidin-modified HSA nanoparticles the analgesic effects indicated in Table 1 were obtained after intravenous injection."}
{"substance": "dalargin [Dalargin solution]", "values": [{"measurement": "Analgesic effect [% MPE]", "setting": "30 min", "value": "10.0 ± 9.8", "unit": "% MPE"}, {"measurement": "Analgesic effect [% MPE]", "setting": "45 min", "value": "9.3 ± 2.8", "unit": "% MPE"}, {"measurement": "Analgesic effect [% MPE]", "setting": "90 min", "value": "4.7 ± 5.1", "unit": "% MPE"}, {"measurement": "Analgesic effect [% MPE]", "setting": "120 min", "value": "2.0 ± 6.1", "unit": "% MPE"}]}
